Values of other authors as cited in patent US20170128482A1, “MODIFIED RELEASE PHARMACEUTICAL COMPOSITIONS OF […] RIBAVIRIN” (SANOVEL ILAC SANAYI VE TICARET A.S., priority 2014, published 2017).

Columns and labels:
[1] = test system: chronic hepatitis C (CHC) infections / HCV; settings: ribavirin alone

Row | Compound | sustained virologic response [1] | HCV RNA levels ([1]; during or after therapy) | alanine aminotransferase (ALT) levels ([1]; during the course of treatment, some patients with CHC) | metabolism by Cytochrome P450 (CYP450) (Cytochrome P450 (CYP450))
1 | 1-β-Dribofuranosyl-1H-1,2,4-triazole-3-carboxamide [Ribavirin] | did not produce any sustained virologic response | did not reduce | transiently | 
2 | CC(C)OC(=O)[C@H](C)N[P@](=O)(OC[C@H]1O[C@@H](n2ccc(=O)[nH]c2=O)[C@](C)(F)[C@@H]1O)Oc1ccccc1 [Sofosbuvir, (S)-Isopropyl 2-((S)-(((2R,3R,4R,5R)-5-(2,4-dioxo3,4-dihydropyrimidin-1(2H)-yl)-4-fluoro-3-hydroxy-4-methyltetrahydrofuran-2yl)methoxy)-(phenoxy)phosphorylamino)propanoate] |  |  |  | not metabolized
